According to patent US9174940B2, “TSH receptor antagonizing tetrahydroquinoline compounds” (Merck Sharp & Dohme B.V., priority 2007, dated 2015):

Experiments:
human TSH receptor [1] = target: T1, human TSH receptor (Homo sapiens (Human), UniProt P16473); assay: Antagonist activity against human TSI at the human TSH receptor expressed in CHO cells (CRE-luciferase reporter, rolipram); format: cell-based; details: stimulated with 3.16 mg/ml human TSI; 10 μM rolipram; CHO cells cultured 16 h without serum
human TSH receptor [2] = target: T1, human TSH receptor; assay: Antagonist activity against bovine TSH at the human TSH receptor in CHO cells under the TSI assay conditions (CRE-luciferase reporter, rolipram); format: cell-based; details: stimulated with 18 nM bovine TSH; 10 μM rolipram; CHO cells cultured 16 h without serum
[3] = test system: constitutively active human TSHR mutants (Thr632Ile, Ala623Val, Ile568Thr, Asp619Gly and Asp633Glu); assay: Antagonist activity at constitutively active human TSH receptors expressed in CHO cells (cAMP Alphascreen); format: cell-based; details: 10^−6M compound, 10 μM rolipram, transiently transfected CHO cells
Experimental: Antagonist activity of two compounds was tested in Chinese Hamster Ovary (CHO) cells transiently transfected with a plasmid encoding one of the 5 most prevalent, constitutively active human TSHR mutants (Thr632Ile, Ala623Val, Ile568Thr, Asp619Gly and Asp633Glu) (van Sande et al. (1995) J. Clin. Endocrinol. Metabol. 80, 2577-2585), which have been identified in autonomously functioning thyroid nodules causing hyperthyroidism. The cells were incubated with 10^−6M of either the compound of example 35 or example 1 in the presence of 10 μM rolipram. Activity of the TSH receptor mutants was quantified using a Packard cAMP Alphascreen assay.

human TSH receptor [4] = target: T1, human TSH receptor; assay: Antagonist activity against TSH at the human TSH receptor expressed in CHO cells (CRE-luciferase reporter); details: together with 18 nM bovine TSH
Experimental: Antagonist activity of the compounds against TSH at the human TSH receptor was tested in Chinese Hamster Ovary (CHO) cells stably transfected with a plasmid encoding the human TSH receptor and a second plasmid with a cAMP responsive element (CRE)/promotor directing the expression of a firefly luciferase reporter gene. Binding of bovine TSH to the Gs-coupled TSH receptor will result in an increase of cAMP, which in turn will induce an increased transactivation of the luciferase reporter. Luciferase activity was quantified using a luminescence counter.

T1 sequence (P16473 21-764): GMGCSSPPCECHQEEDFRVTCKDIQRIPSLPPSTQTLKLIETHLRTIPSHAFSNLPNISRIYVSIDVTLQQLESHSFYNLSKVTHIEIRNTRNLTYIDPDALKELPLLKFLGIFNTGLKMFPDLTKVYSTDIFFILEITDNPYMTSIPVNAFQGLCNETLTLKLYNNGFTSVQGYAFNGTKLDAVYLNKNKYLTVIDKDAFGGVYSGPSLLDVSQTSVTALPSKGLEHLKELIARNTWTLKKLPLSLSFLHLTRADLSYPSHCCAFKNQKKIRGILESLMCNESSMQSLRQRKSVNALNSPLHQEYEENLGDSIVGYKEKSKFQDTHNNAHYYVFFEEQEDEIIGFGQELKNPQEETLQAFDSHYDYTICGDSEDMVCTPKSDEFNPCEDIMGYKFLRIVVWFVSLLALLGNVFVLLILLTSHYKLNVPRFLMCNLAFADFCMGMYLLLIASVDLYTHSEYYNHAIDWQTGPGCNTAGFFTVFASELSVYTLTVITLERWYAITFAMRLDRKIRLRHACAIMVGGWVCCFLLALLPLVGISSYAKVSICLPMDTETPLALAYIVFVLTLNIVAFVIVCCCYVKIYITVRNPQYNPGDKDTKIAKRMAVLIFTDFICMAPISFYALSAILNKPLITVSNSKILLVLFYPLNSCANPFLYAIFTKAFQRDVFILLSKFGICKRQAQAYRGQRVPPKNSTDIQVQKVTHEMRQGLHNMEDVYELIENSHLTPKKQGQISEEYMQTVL

Compound	IC50 (human TSH receptor [4]) [nM]	further results
CC(=O)N1CCC(C)(c2ccccc2)c2cc(NC(=O)OC3CCCC3)ccc21 (single isomer, unassigned; (+)) [Example 39]		IC50 (human TSH receptor [1]): 12 nM; IC50 (human TSH receptor [2]): 48 nM
CC(=O)N1CCC(C)(c2ccccc2)c2cc(NC(=O)OCc3ccc(F)c(Cl)c3)ccc21 (single isomer, unassigned; (+)) [Example 40, (+)-(1-Acetyl-4-methyl-4-phenyl-1,2,3,4-tetrahydro-quinolin-6-yl)-carbamic acid 3-chloro-4-fluoro-benzyl ester]		IC50 (human TSH receptor [1]): 47 nM; IC50 (human TSH receptor [2]): 192 nM
CCCCCC(=O)Nc1ccc2c(c1)C(C)(c1ccccc1)CC(C)(C)N2C(C)=O (stereo not drawn) [Example 1, Hexanoic acid (1-acetyl-2,2,4-trimethyl-4-phenyl-1,2,3,4-tetrahydro-quinolin-6-yl)-amide]	< 100	IC50 (human TSH receptor [1]): 88 nM; IC50 (human TSH receptor [2]): 368 nM; inhibition of constitutive activity of all 5 receptor mutants [3]: > 80%
CC(=O)N1c2ccc(NC(=O)c3ccccn3)cc2C(C)(c2ccccc2)CC1(C)C (stereo not drawn) [Example 4, Pyridine-2-carboxylic acid (1-acetyl-2,2,4-trimethyl-4-phenyl-1,2,3,4-tetrahydro-quinolin-6-yl)-amide]	< 100	
CC(=O)N1c2ccc(NC(=O)OCCOc3ccccc3)cc2C(C)(c2ccccc2)CC1(C)C (stereo not drawn) [Example 6, (1-Acetyl-2,2,4-trimethyl-4-phenyl-1,2,3,4-tetrahydro-quinolin-6-yl)-carbamic acid 2-phenoxy-ethyl ester]	< 100	
CCCCOC(=O)Nc1ccc2c(c1)C(C)(c1ccccc1)CC(C)(C)N2C(C)=O (stereo not drawn) [Example 7, (1-Acetyl-2,2,4-trimethyl-4-phenyl-1,2,3,4-tetrahydro-quinolin-6-yl)-carbamic acid butyl ester]	< 100	
CC(=O)N1c2ccc(NC(=O)CCc3cccc(Cl)c3)cc2C(C)(c2ccccc2)CC1(C)C (stereo not drawn) [Example 26, N-(1-Acetyl-2,2,4-trimethyl-4-phenyl-1,2,3,4-tetrahydro-quinolin-6-yl)-3-(3-chloro-phenyl)-propionamide]	< 100	
CC(=O)N1CCC(C)(c2ccccc2)c2cc(NC(=O)OCCC(C)C)ccc21 (stereo not drawn) [Example 27, (1-Acetyl-4-methyl-4-phenyl-1,2,3,4-tetrahydro-quinolin-6-yl)-carbamic acid 3-methyl-butyl ester]	< 100	
CC(=O)N1CCC(C)(c2ccccc2)c2cc(NC(=O)OCC3(C)CC3)ccc21 (stereo not drawn) [Example 28, (1-Acetyl-4-methyl-4-phenyl-1,2,3,4-tetrahydro-quinolin-6-yl)-carbamic acid 1-methyl-cyclopropylmethyl ester]	< 100	
CC(=O)N1CCC(C)(c2ccccc2)c2cc(NC(=O)OCC3CCC3)ccc21 (stereo not drawn) [Example 29, (1-Acetyl-4-methyl-4-phenyl-1,2,3,4-tetrahydro-quinolin-6-yl)-carbamic acid cyclobutylmethyl ester]	< 100	
CC(=O)N1CCC(C)(c2ccccc2)c2cc(NC(=O)OCc3ccc(F)c(Cl)c3)ccc21 (stereo not drawn) [Example 34, (1-Acetyl-4-methyl-4-phenyl-1,2,3,4-tetrahydro-quinolin-6-yl)-carbamic acid 3-chloro-4-fluoro-benzyl ester]	< 100	
CC(=O)N1CCC(C)(c2ccccc2)c2cc(NC(=O)c3ccc(Br)s3)ccc21 (stereo not drawn) [Example 35, 5-Bromo-thiophene-2-carboxylic acid (1-acetyl-4-methyl-4-phenyl-1,2,3,4-tetrahydro-quinolin-6-yl)-amide]		inhibition of constitutive activity of all 5 receptor mutants [3]: > 80%
(1-Acetyl-4-methyl-4-phenyl-1,2,3,4,4a,8a-hexahydro-quinolin-6-yl)-carbamic acid cyclopentyl ester [Example 32]	< 100	
